Reference: PubChem BioAssay (NCI)
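Values below derive from 48-hour exposures of cells grown in 96-well plates, with endpoints linearly interpolated between the two concentrations bracketing the appropriate inhibition level. The concentration for 50% growth inhibition is given as GI50. TGI marks complete inhibition of growth.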

Columns and labels:
Test in all cases: growth of human tumour cells (NCI), 48 h
[1] = test system: SR leukemia
[2] = test system: MDA-MB-435
[3] = test system: SN12C renal
[4] = test system: OVCAR-4 ovarian
[5] = test system: MALME-3M melanoma
[6] = test system: HT29 colon
[7] = test system: SNB-19 CNS
[8] = test system: EKVX NSCLC
[9] = test system: OVCAR-5 ovarian
[10] = test system: SK-MEL-2 melanoma

Structure (SMILES) | TGI [1] [µM] | TGI [2] [µM] | TGI [3] [µM] | TGI [4] [µM] | TGI [5] [µM] | TGI [6] [µM] | TGI [7] [µM] | TGI [8] [µM] | TGI [9] [µM] | TGI [10] [µM] | GI50 [3] [µM] | GI50 [5] [µM] | GI50 [6] [µM]
C[C@]12CCC(=O)C=C1CC[C@@H]1C2CC[C@]2(C)Nc3c(ncn3-c3ccc(F)cc3)CC12 (stereo partly drawn) | 29.9 | 42.5 | > 100 | > 100 | 70.4 | > 100 | > 100 | > 100 | > 100 |  |  |  | 
CC1=C2C(O)C(C(C)C(=O)NC(C)C)CCC2(C)C=CC1=O (stereo not drawn) |  |  | > 100 | > 100 |  | > 100 | > 100 | > 100 | > 100 | > 100 |  |  | 
c1ccc2c(c1)C(=Nc1ccc(N=C3c4ccccc4-c4ccccc43)cc1)c1ccccc1-2 |  | > 100 | > 100 | > 100 | > 100 | > 100 | > 100 | > 100 | > 100 | > 100 |  |  | 
O=C1C[C@H]2[C@H](c3ccc(Br)cc3)[C@H]3C(=O)c4ccccc4NC(=O)[C@@H]3[C@@]2(O)c2ccccc2N1 | 90.8 | 26.9 | > 100 | > 100 | 45.5 | 30.8 | > 100 | > 100 | 91.9 |  |  |  | 
CC(NC(=O)C(N)CC(=O)O)NC(=O)N1CCCC1 (stereo not drawn) |  | > 100 | > 100 | > 100 | > 100 | > 100 | > 100 | > 100 | > 100 | > 100 |  |  | 
COc1cc(OC)nc(Nc2c(C#N)c3nc4ccccc4n3c3ccccc23)n1 |  | > 100 |  | 78.7 |  | > 100 | 86.2 | > 100 | > 100 | 71.1 |  |  | 
COC1(C)C=NCC(C)(C)NC(=O)C(C)(OC)C=NCC(C)(C)NC1=O (stereo not drawn) | > 10 | > 10 | > 10 | > 10 | > 10 | > 10 | > 10 | > 10 |  |  |  |  | 
COc1cccc(-n2c(N)c(-c3nc4cc(C(F)(F)F)ccc4s3)c3ccc([N+](=O)[O-])cc3c2=O)c1 |  | > 100 | > 100 | > 100 | > 100 | > 100 | > 100 | > 100 | > 100 | > 100 |  |  | 
O=C(Nc1c(Cl)cc([N+](=O)[O-])cc1Cl)/C(=N\Nc1cccc(Cl)c1)c1c(O)c2ccccc2oc1=O | > 100 |  | > 100 | > 100 | > 100 | > 100 | > 100 | > 100 | > 100 | > 100 |  |  | 
COc1cc([C@@H]2c3cc4c(c(O)c3C[C@H]3COC(=O)[C@@H]32)OCO4)cc(OC)c1O |  |  | 0.431 | > 200 |  | 1.53 | > 200 | > 92.8 | > 200 | 6.56 | 0.00372 | 0.00116 | 0.0182
CCNc1ncnc2n[nH]nc12 |  | > 100 | > 100 | > 100 | > 100 | > 100 | > 100 | > 100 |  | > 100 |  |  | 
COc1cc(C=O)c(-c2cc3c(cc2C=O)OCO3)c(OC)c1OC | > 290 |  | 260 |  | > 290 | 186 | > 290 | > 290 | > 290 | 190 |  |  | 
Cc1cc(NCCCCCCNc2cc(C)nc3ccc(Cl)cc23)c2cc(Cl)ccc2n1 | > 100 |  | 47.2 | 34.8 | 75.6 | 33.5 | 66.8 | 30.4 | 34.7 | 46 |  |  | 
S=C(Nc1ccccc1)N1N=C2c3ccccc3CC[C@H]2[C@@H]1c1ccccc1 | 1.96 |  | > 100 | > 100 | > 100 | > 100 | > 100 | > 100 | > 100 | > 100 |  |  | 
CC(C)=CCC[C@H](C)[C@H]1CC[C@@H](C)c2cc(O)c(C)cc21 |  | 38.8 | 29.8 | 31.5 | 33.4 | 37.2 | 31.6 | 33.4 | 30.7 | 32.4 |  |  | 
N#CC(c1cc(Cl)ncn1)c1nc2ccccc2s1 (stereo not drawn) |  | 62 | 7.49 | 91 | 24.6 | 23.6 | 20.3 | 58.1 | 59.3 |  |  |  | 
N#Cc1c2nc3ccccc3nc2n2ccc3ccccc3c12 |  |  | > 100 | > 100 | > 100 | > 100 | > 100 | > 100 | > 100 | > 100 |  |  | 
CC(=O)NC(CCCCNC(=O)N(C)N=O)C(=O)NCc1ccccc1 (stereo not drawn) |  |  | > 100 | > 100 | > 100 | > 100 | > 100 | > 100 | > 100 | > 100 |  |  | 
Cc1cc(C#N)c(Nc2c(C)cccc2[N+](=O)[O-])s1 | > 100 | > 100 | > 100 | > 100 | 89.3 |  | > 100 | > 100 | > 100 |  |  |  | 
Cc1cc(-c2ccccc2)cc2[n+]1CC=C2 |  |  | > 100 | > 100 | > 100 | > 100 | > 100 | > 100 | > 100 | > 100 |  |  | 
C[C@@H]1OC(=O)/C(=C\N(C)C)[C@H]2CC(=O)N(CCc3cn(S(=O)(=O)C(F)(F)F)c4ccccc34)C[C@H]12 |  | > 100 | > 100 | > 100 | > 100 |  | > 100 | > 100 | > 100 | > 100 |  |  | 
CCCCOC(=O)C1CN2C(=NC1(C(F)(F)F)C(F)(F)F)Sc1ccccc12 (stereo not drawn) |  |  | > 100 | > 100 | > 100 | > 100 | > 100 | > 100 | > 100 | > 100 |  |  | 
COc1ccc(-c2nnc(CCCCCCCCc3nnc(-c4ccc(OC)cc4)o3)o2)cc1 |  | > 100 | > 100 | > 100 | > 100 | > 100 | > 100 | > 100 | > 100 | > 100 |  |  | 
COc1ccc([C@@H]2CC(=O)NCCCCNCCCN2)cc1 | > 100 |  | > 100 | > 100 | > 100 | > 100 | > 100 | > 100 | > 100 | > 100 |  |  | 
